molecular target: Histone deacetylase; assay: Inhibitory concentration against histone deacetylase (HDAC); Value ranges from 5-8 uM; format: protein assay; details: not given

| SMILES | IC50 [µM] |
| --- | --- |
| CCCC(CCC)C(=O)Nc1ccc(C(=O)NO)cc1 | < 8 |
| CCCC(CCC)C(=O)NCc1ccc(C(=O)NO)cc1 | < 8 |
| CCCC(CCC)C(=O)NCc1ccc(C(=O)Nc2ccccc2N)cc1 | < 8 |

molecular target: Histone deacetylase; assay: Inhibitory concentration against histone deacetylase (HDAC); Value ranges from 5-80 uM; format: protein assay; details: not given

| SMILES | IC50 [µM] |
| --- | --- |
| CCCC(CCC)C(=O)Nc1ccc(CC(=O)NO)cc1 | < 80 |
| CCCC(CCC)C(=O)Nc1ccc(CCC(=O)Nc2ccccc2N)cc1 | < 80 |

system: DU-145; assay: Effect of HTPB on DU-145 Cell viability; high degree of sensitivity, Range 0.5-1; format: functional, cell-based; details: Homo sapiens

| SMILES | IC50 [µM] |
| --- | --- |
| O=C(CCCc1ccccc1)Nc1ccc(C(=O)NO)cc1 | 1 |

molecular target: Histone deacetylase; assay: Inhibition of histone deacetylase (HDAC) activity in DU-145 nuclear extracts; format: protein assay, Homo sapiens; details: not given

| SMILES | IC50 [µM] |
| --- | --- |
| Nc1ccccc1NC(=O)c1ccc(CNC(=O)Cc2ccccc2)cc1 | 5.2 |
| O=C(CCc1ccc(NC(=O)CCCc2ccccc2)cc1)NO | 0.53 |
| CCCC(CCC)C(=O)Nc1ccc(CC(=O)Nc2ccccc2N)cc1 | 80 |
| CCCC(=O)Nc1ccc(CCC(=O)NO)cc1 | 1.6 |
| CCCC(=O)Nc1ccc(C(=O)NO)cc1 | 1.5 |
| CCCC(CCC)C(=O)Nc1ccc(CCC(=O)NO)cc1 | 5 |
| CCCC(=O)NCc1ccc(C(=O)NO)cc1 | 3.6 |
| O=C(CCCc1ccccc1)Nc1ccc(C(=O)NO)cc1 | 0.044 |
| O=C(Cc1ccccc1)NCc1ccc(C(=O)NO)cc1 | 2.5 |
| O=C(CCCc1ccccc1)NCc1ccc(C(=O)NO)cc1 | 1.2 |
| O=C(CCc1ccc(NC(=O)Cc2ccccc2)cc1)NO | 0.67 |
| O=C(Cc1ccccc1)Nc1ccc(C(=O)NO)cc1 | 0.11 |
| Nc1ccccc1NC(=O)c1ccc(CNC(=O)CCCc2ccccc2)cc1 | 4.3 |
| CCCC(=O)NCc1ccc(C(=O)Nc2ccccc2N)cc1 | 6 |

molecular target: Histone deacetylase; assay: Inhibitory concentration against histone deacetylase (HDAC); Value ranges from 10-20 uM; format: protein assay; details: not given

| SMILES | IC50 [µM] |
| --- | --- |
| CCCC(CCC)C(=O)Nc1ccc(/C=C/C(=O)NO)cc1 | < 20 |
| CCCC(CCC)C(=O)Nc1ccc(C(=O)Nc2ccccc2N)cc1 | < 20 |
| CCCC(CCC)C(=O)Nc1ccc(/C=C/C(=O)Nc2ccccc2N)cc1 | < 20 |
